# Counter-ions that a name gives are not always drawn.
# What was measured:
# Na+,K+-ATPase [1] = target: T1, Na+,K+-ATPase (Canis lupus familiaris, UniProt P50997); assay: displacement of the specific 3H-ouabain binding from the Na+,K+-ATPase receptor; conditions: displacement of specific 3H-ouabain binding, purified enzyme
# T1 construct: Na^+,K^+ -ATPase receptor purified according to Jorghensen; from tissue
# Source text: (§1) To test the affinity for the receptor site of the Na^+,K^+ -ATPase and the inhibitory activity on the enzyme, the following tests were used: a) displacement of the specific 3H-ouabain binding from the Na^+,K^+ -ATPase receptor purified according to Jorghensen (Jorghensen P., BBA.
# Na+,K+-ATPase [2] = target: T1, Na+,K+-ATPase; assay: inhibition of the activity of the purified Na+,K+-ATPase (hydrolysis of 32P-ATP); format: biochemical; conditions: purified enzyme
# Source text: as §1
# guinea pig left atrium = assay: inotropic activity in vitro, electrically paced guinea pig left atrium; conditions: Cavia porcellus
# [3] = acute toxicity mouse oral; conditions: in vivo
# Source text: Finally the compounds of the invention have a low toxicity when compared with standard cardiotonic steroids.
Structure (SMILES),"EC50 (Na+,K+-ATPase [1])","IC50 (Na+,K+-ATPase [2])",EC50 (guinea pig left atrium),LD50 [3]
"CN(C)CCO/N=C1/CC[C@@]2(C)[C@H](C1)C(=O)C[C@@H]1[C@@H]2CC[C@]2(C)C(=O)CC[C@@H]12 [I-i, (Z)-3-(2-N,N-dimethylaminoethoxyimino)-5α-androstan-6,17-dione]",500 nM,12000 nM,7100 nM,> 1000 mg/kg
"CN(C)CCO/N=C\[C@H]1CC[C@@]2(C)[C@H](C1)[C@@H](O)C[C@@H]1[C@@H]2CC[C@]2(C)[C@@H](O)CC[C@@H]12 [I-e, (Z)-3β-(2-N,N-dimethylaminoethoxyiminomethyl)-5α-androstan-6α,17β-diol oxalate]",160 nM,2000 nM,5600 nM,> 600 mg/kg
"C[C@]12CCC(=NOCCN)C[C@@H]1[C@@H](O)C[C@@H]1[C@@H]2CC[C@]2(C)[C@@H](O)CC[C@@H]12 [I-a, (E,Z)-3-(2-aminoethoxyimino)-5α-androstan-6α,17β-diol oxalate]",100 nM,1600 nM,2500 nM,> 600 mg/kg
"CN(C)CCCO[C@H]1CC[C@@]2(C)[C@H](C1)C(=O)C[C@@H]1[C@@H]2CC[C@]2(C)C(=O)CC[C@@H]12 [I-m, 3β-(3-N,N-dimethylaminopropoxy)-5α-androstan-6,17-dione]",1300 nM,50000 nM,20000 nM,> 1000 mg/kg
"C[C@]12CC[C@H](/C=N\OCCN)C[C@@H]1[C@@H](O)C[C@@H]1[C@@H]2CC[C@]2(C)[C@@H](O)CC[C@@H]12.O=C(O)C(=O)O [I-d, (Z)-3β-(2-aminoethoxyiminomethyl)-5α-androstan-6α,17β-diol oxalate]",130 nM,1600 nM,10500 nM,> 600 mg/kg
"C[C@]12CCC(=NOCCN)C[C@@H]1C(=O)C[C@@H]1[C@@H]2CC[C@]2(C)C(=O)CC[C@@H]12 [I-h, (E,Z)-3-(2-aminoethoxyimino)-5α-androstan-6,17-dione emioxalate]",20 nM,300 nM,600 nM,520 mg/kg
"CN(C)CCO/N=C/C=C1\CC[C@@]2(C)[C@H](C1)C(=O)C[C@@H]1[C@@H]2CC[C@]2(C)C(=O)CC[C@@H]12 [I-k, (E)-3-[3-(2-N,N-dimethylaminoethoxyimino)(E)-propen-1-yl)-5α-androstan-6,17-dione oxalate]",320 nM,3200 nM,12600 nM,> 600 mg/kg
"CN(C)CCO/N=C/C=C1\CC[C@@]2(C)[C@H](C1)[C@@H](O)C[C@@H]1[C@@H]2CC[C@]2(C)[C@@H](O)CC[C@@H]12 [I-f, (E)-3-[3-(2-N,N-dimethylaminoethoxyimino)(E)-propen-1-yl)-5α-androstan-6α,17β-diol]",100 nM,1000 nM,800 nM,560 mg/kg
"C[C@H]1O[C@@H](O[C@H]2[C@@H](O)C[C@H](O[C@H]3[C@@H](O)C[C@H](O[C@H]4CC[C@@]5(C)[C@H](CC[C@@H]6[C@@H]5C[C@@H](O)[C@]5(C)[C@@H](C7=CC(=O)OC7)CC[C@]65O)C4)O[C@@H]3C)O[C@@H]2C)C[C@H](O)[C@@H]1O [Digoxin, reference compound]",–,–,500 nM,18 mg/kg

# Reference: patent US5914324A, “6-Hydroxy and 6-oxo-androstane derivatives active on the cardiovascular system and pharmaceutical compositions containing same” (Sigma-Tau Industrie Farmaceutiche Riunite S.p.A., priority 1996, dated 1999)
